Measured values reported in patent US20110319392A1, “Thiazole Sulfonamide And Oxazole Sulfonamide Kinase Inhibitors” (priority 2009, published 2011).

What was measured:
Format in all cases: cell-based, Human
HN5 tumor cells = experiment: Cell growth inhibition assay (CellTiter-Glo), HN5; conditions: Homo sapiens, 72 h; 3 days incubation
Summary of the method: (§1)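 Cells seeded at 500/well (HN5 and HT-29 in high-glucose DMEM/10% FBS; A375P F11s in RPMI/10% FBS with pyruvate; SK-MEL-3 in McCoy's 5A/15% FBS), then exposed next day to 1:3 serial compound dilutions (0.2% DMSO) for 3 days at 37° C. CellTiter-Glo luminescence measured ATP; IC50 derived by 4-parameter fit.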

Colo205 tumor cells = experiment: Cell growth inhibition assay (CellTiter-Glo), Colo205; conditions: Homo sapiens, COLO 205, 72 h; 3 days incubation
Summary of the method: (§2)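 Cells plated at 500 cells/well in their growth media, dosed next day with nine-step 1:3 compound dilutions (final DMSO 0.2%), then incubated 3 days at 37° C, 5% CO2. Total ATP read by CellTiter-Glo luminescence as a surrogate for cell number; IC50 interpolated from 4-parameter fit versus DMSO controls.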

SK-MEL-28 tumor cells = experiment: Cell growth inhibition assay (CellTiter-Glo), SK-MEL-28; conditions: Homo sapiens, SK-MEL-28, 72 h; 3 days incubation
Summary of the method: as §2

A375P F11s tumor cells = experiment: Cell growth inhibition assay (CellTiter-Glo), A375P F11s; conditions: Homo sapiens
Summary of the method: as §1

HT-29 tumor cells = experiment: Cell growth inhibition assay (CellTiter-Glo), HT-29; conditions: Homo sapiens
Summary of the method: as §1

SK-MEL-3 tumor cells = experiment: Cell growth inhibition assay (CellTiter-Glo), SK-MEL-3; conditions: Homo sapiens, SK-MEL3
Summary of the method: as §1

IC50 (HN5 tumor cells) [nM]	IC50 (Colo205 tumor cells) [nM]	IC50 (SK-MEL-28 tumor cells) [nM]	IC50 (A375P F11s tumor cells) [nM]	IC50 (HT-29 tumor cells) [nM]	IC50 (SK-MEL-3 tumor cells) [nM]	Compound
100 to 1000	< 100	< 100	< 100	< 100	< 100	CC(C)c1nc(-c2cc(F)cc(NS(=O)(=O)c3c(F)cccc3F)c2)c(-c2ccnc(Nc3ccc(N4CCOCC4)nc3)n2)s1 [Example 84]
> 1000	< 100	< 100	< 100	100 to 1000	< 100	CCc1nc(-c2cccc(NS(=O)(=O)c3ccccc3)c2)c(-c2ccnc(Nc3ccc(N4CCN(C(C)=O)CC4)nc3)n2)s1 [Example 3, N-{3-[5-(2-{[6-(4-Acetyl-1-piperazinyl)-3-pyridinyl]amino}-4-pyrimidinyl)-2-ethyl-1,3-thiazol-4-yl]phenyl}benzenesulfonamide]
100 to 1000	< 100	< 100	< 100	100 to 1000	< 100	CC(C)c1nc(-c2cccc(NS(=O)(=O)c3c(F)cccc3F)c2)c(-c2ccnc(Nc3ccc(N4CCCNCC4)nc3)n2)s1 [Example 82]
100 to 1000	100 to 1000	100 to 1000	100 to 1000	> 1000	100 to 1000	CC(C)c1nc(-c2cccc(NS(=O)(=O)c3ccccc3)c2)c(-c2ccnc(Nc3ccc(N4CCOCC4)cn3)n2)s1 [Example 92]
100 to 1000	100 to 1000	100 to 1000	100 to 1000	100 to 1000	100 to 1000	CCc1nc(-c2cccc(NS(=O)(=O)c3ccccc3)c2)c(-c2ccnc(Nc3ccc(N4CCOCC4)c(F)c3)n2)s1 [Example 4]
> 1000	< 100	< 100	< 100	> 1000	< 100	CC(C)c1nc(-c2cccc(NS(=O)(=O)c3c(F)cccc3F)c2)c(-c2ccnc(Nc3ccc(N4CCN(C(C)C)CC4)cc3O)n2)s1 [Example 78]
100 to 1000	< 100	< 100	< 100	< 100	< 100	CC(C)c1nc(-c2cccc(NS(=O)(=O)c3c(F)cccc3F)c2)c(-c2ccnc(Nc3ccc(N4CCCN(CCS(C)(=O)=O)CC4)nc3)n2)s1 [Example 88]
100 to 1000	100 to 1000	100 to 1000	100 to 1000	100 to 1000	< 100	CC(C)c1nc(-c2cccc(NS(=O)(=O)c3ccccc3)c2)c(-c2ccnc(Nc3ccc(CC4CCN(CCS(C)(=O)=O)CC4)c(F)c3)n2)s1 [Example 72]
> 1000	100 to 1000	100 to 1000	100 to 1000	100 to 1000	100 to 1000	COc1cc(N2CCN(CCF)CC2)ccc1Nc1nccc(-c2sc(C(C)C)nc2-c2cccc(NS(=O)(=O)c3c(F)cccc3F)c2)n1 [Example 79]
100 to 1000	< 100	< 100	< 100	< 100	< 100	CC(=O)N1CCN(c2ccc(Nc3nccc(-c4sc(C(C)C)nc4-c4cccc(NS(=O)(=O)c5cc(F)ccc5F)c4)n3)cn2)CC1 [Example 96]
> 1000	< 100	< 100	100 to 1000	> 1000	100 to 1000	Cc1cc(N2CCC(N3CCCCC3)CC2)ccc1Nc1nccc(-c2sc(C(C)C)nc2-c2cccc(NS(=O)(=O)c3c(F)cccc3F)c2)n1 [Example 91]
100 to 1000	< 100	< 100	< 100	100 to 1000	< 100	CC(C)c1nc(-c2cc(F)cc(NS(=O)(=O)c3c(F)cccc3F)c2)c(-c2ccnc(Nc3ccc(N4CCOCC4)c(F)c3)n2)s1 [Example 85]
> 1000	< 100	< 100	< 100	100 to 1000	< 100	CC(C)c1nc(-c2cccc(NS(=O)(=O)c3c(F)cccc3F)c2)c(-c2ccnc(Nc3cc(F)c(N4CCN(CCS(C)(=O)=O)CC4)cc3F)n2)s1 [Example 87]
100 to 1000	< 100	< 100	< 100	100 to 1000	< 100	CC(C)c1nc(-c2cccc(NS(=O)(=O)c3c(F)cccc3F)c2)c(-c2ccnc(Nc3ccc(N4CCN(CCO)CC4)nc3)n2)s1 [Example 80]
100 to 1000	< 100	< 100	< 100	< 100	< 100	CCc1nc(-c2cccc(NS(=O)(=O)c3ccccc3)c2)c(-c2ccnc(Nc3ccc(OC)c(N4CCN(CCS(C)(=O)=O)CC4)c3)n2)s1 [Example 5, N-[3-(2-Ethyl-5-{2-[(4-(methyloxy)-3-{4-[2-(methylsulfonyl)ethyl]-1-piperazinyl}phenyl)amino]-4-pyrimidinyl}-1,3-thiazol-4-yl)phenyl]benzenesulfonamide]
100 to 1000	< 100	< 100	< 100	> 1000	< 100	CC(C)c1nc(-c2cccc(NS(=O)(=O)c3c(F)cccc3F)c2)c(-c2ccnc(Nc3ccc(N4CC[C@@H](O)C4)nc3)n2)s1 [Example 89]
100 to 1000	100 to 1000	100 to 1000	100 to 1000	> 1000	100 to 1000	CC(C)c1nc(-c2cc(F)cc(NS(=O)(=O)c3ccc(F)cc3)c2)c(-c2ccnc(Nc3ccc(N4CCOCC4)c(F)c3)n2)s1 [Example 83]
100 to 1000	< 100	< 100	< 100	< 100	< 100	CC(=O)N1CCc2cc(Nc3nccc(-c4sc(C(C)C)nc4-c4cccc(NS(=O)(=O)c5ccccc5)c4)n3)ccc21 [Example 71]
100 to 1000	< 100	< 100	< 100	100 to 1000	< 100	CC(C)c1nc(-c2cccc(NS(=O)(=O)c3c(F)cccc3F)c2)c(-c2ccnc(Nc3cccc(N4CCN(C)CC4)c3)n2)s1 [Example 81]
> 1000	< 100	100 to 1000	100 to 1000	> 1000	100 to 1000	C=C(C)c1nc(-c2cccc(NS(=O)(=O)c3c(F)cccc3F)c2)c(-c2ccnc(Nc3ccc(N4CCN(CCF)CC4)c(F)c3)n2)s1 [Example 93]
100 to 1000	< 100	< 100	100 to 1000	> 1000	100 to 1000	CC(C)c1nc(-c2ccc(F)c(NS(=O)(=O)c3c(F)cccc3F)c2)c(-c2ccnc(Nc3ccc(N4CCN(CCS(C)(=O)=O)CC4)c(F)c3)n2)s1 [Example 95]
100 to 1000	< 100	< 100	< 100	100 to 1000	< 100	CC(C)c1nc(-c2cccc(NS(=O)(=O)c3ccccc3)c2)c(-c2ccnc(Nc3ccc(F)c(N4CCN(CCS(C)(=O)=O)CC4)c3)n2)s1 [Example 73]
> 1000	100 to 1000	100 to 1000	100 to 1000	> 1000	100 to 1000	CC(C)c1nc(-c2cccc(NS(=O)(=O)c3ccccc3)c2)c(-c2ccnc(Nc3ccc(N4CCN(CCS(C)(=O)=O)CC4)c(F)c3F)n2)s1 [Example 74]
